The target in test [1] is adenosine A2B receptor (Homo sapiens (Human), UniProt P29275). Kind of test: Adenosine receptor activity assay (Table 1), A2B activity. In kind it is biochemical. To be noted: for Ratio: A2A activity to A2B activity (A2A/A2B); for IC50: read-out: Ave A2B cAMP IC50.
Test [2] has as its target adenosine A2A receptor (Homo sapiens (Human), UniProt P29274). Kind of test: Adenosine receptor activity assay (Table 1), A2A activity. It is filed as biochemical. The note with it: read-out: Ave A2A cAMP IC50.

Sequence of adenosine A2B receptor (P29275 whole entry): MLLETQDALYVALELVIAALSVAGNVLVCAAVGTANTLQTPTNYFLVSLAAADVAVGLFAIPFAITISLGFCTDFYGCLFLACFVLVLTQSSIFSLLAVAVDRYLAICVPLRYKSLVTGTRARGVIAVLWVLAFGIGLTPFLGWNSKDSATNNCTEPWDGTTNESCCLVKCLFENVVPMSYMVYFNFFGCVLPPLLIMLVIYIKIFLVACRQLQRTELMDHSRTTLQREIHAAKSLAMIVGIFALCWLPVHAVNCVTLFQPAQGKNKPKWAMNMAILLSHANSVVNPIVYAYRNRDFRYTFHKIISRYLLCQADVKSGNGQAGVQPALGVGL
Sequence of adenosine A2A receptor (P29274 whole entry): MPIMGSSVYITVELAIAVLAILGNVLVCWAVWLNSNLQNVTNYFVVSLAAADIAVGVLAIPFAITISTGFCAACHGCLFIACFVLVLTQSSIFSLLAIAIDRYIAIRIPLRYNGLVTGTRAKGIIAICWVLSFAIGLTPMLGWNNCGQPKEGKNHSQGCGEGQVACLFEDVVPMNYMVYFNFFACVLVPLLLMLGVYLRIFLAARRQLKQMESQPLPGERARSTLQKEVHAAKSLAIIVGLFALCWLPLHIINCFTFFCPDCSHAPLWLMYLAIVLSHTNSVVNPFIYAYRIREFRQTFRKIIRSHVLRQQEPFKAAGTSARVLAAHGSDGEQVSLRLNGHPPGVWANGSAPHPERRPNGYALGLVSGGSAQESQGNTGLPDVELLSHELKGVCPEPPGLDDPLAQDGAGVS

By IC50 is commonly meant the concentration that gives 50% inhibition. As to `C[C@H](Nc1nc(C(=O)NCc2cncc(C(F)(F)F)c2)c2sccc2n1)c1ccccn1` [Example Z200, (S)-2-((1-(Pyridin-2-yl)ethyl)amino)-N-((5-(trifluoromethyl)pyridin-3-yl)methyl)thieno[3,2-d]pyrimidine-4-carboxamide], in test [1], the Ratio is on record as 1.81. Besides, the IC50 in test [1] and in test [2] was 100 to 500 nM throughout.

In the case of `COCC(Nc1nc(C(=O)NC2CC2)c2sccc2n1)c1cccnc1` (centres unmarked) [Example Z202, N-Cyclopropyl-2-((2-methoxy-1-(pyridin-3-yl)ethyl)amino)thieno[3,2-d]pyrimidine-4-carboxamide], the Ratio in test [1] came out at 3.91. The figures for the IC50 in test [1] and in test [2] were 10 to 50 nM and 50 to 100 nM, respectively.

In the case of `C[C@H](Nc1nc(C(=O)N2CCC2)c2sc(N)cc2n1)c1cccnc1` [Example Z203, (S)-(6-Amino-2-((1-(pyridin-3-yl)ethyl)amino)thieno[3,2-d]pyrimidin-4-yl)(azetidin-1-yl)methanone], the Ratio in test [1] worked out at 33.74. In addition, the IC50 was 10 to 50 nM in test [1] and 100 to 500 nM in test [2].

In the case of `C[C@H](Nc1nc(C(=O)N2CC[C@H](F)C2)c2sc(N)cc2n1)c1cccnc1` [Example Z204, (6-Amino-2-(((S)-1-(pyridin-3-yl)ethyl)amino)thieno[3,2-d]pyrimidin-4-yl)((S)-3-fluoropyrrolidin-1-yl)methanone], in test [1], the Ratio amounted to 13.13 and the IC50 lay in the range of 10 to 50 nM. The IC50 in test [2] lay in the range of 100 to 500 nM.

Regarding `C[C@H](Nc1nc(C(=O)N2CC(O)C2)c2sc(N)cc2n1)c1ccccn1` [Example Z205, (S)-(6-Amino-2-((1-(pyridin-2-yl)ethyl)amino)thieno[3,2-d]pyrimidin-4-yl)(3-hydroxyazetidin-1-yl)methanone], the Ratio in test [1] is given as 27.10. Further, the IC50 lay within 10 to 50 nM in test [1] and 100 to 500 nM in test [2].

As to `C[C@@H]1CCN(C(=O)c2nc(N[C@@H](C)c3ccccn3)nc3cc(N)sc23)C1` [Example Z206, (6-Amino-2-(((S)-1-(pyridin-2-yl)ethyl)amino)thieno[3,2-d]pyrimidin-4-yl)((R)-3-methylpyrrolidin-1-yl)methanone], the Ratio in test [1] worked out at 8.53. Also, the figures for the IC50 in test [1] and in test [2] were 10 to 50 nM and 100 to 500 nM, respectively.

As to `CNc1cc2nc(N[C@@H](C)c3ccccn3)nc(C(=O)N3CC[C@@H](C)C3)c2s1` [Example Z207, (6-(Methylamino)-2-(((S)-1-(pyridin-2-yl)ethyl)amino)thieno[3,2-d]pyrimidin-4-yl)((R)-3-methylpyrrolidin-1-yl)methanone], in test [1], the Ratio is on record as 14.35 and the IC50 was 10 to 50 nM. Moreover, in test [2], the IC50 was 100 to 500 nM.

As for `C[C@H](Nc1nc(C(=O)N2CC[C@@H](O)C2)c2sc(N)cc2n1)c1ccccn1` [Example Z208, (6-Amino-2-(((S)-1-(pyridin-2-yl)ethyl)amino)thieno[3,2-d]pyrimidin-4-yl)((R)-3-hydroxypyrrolidin-1-yl)methanone], in test [1], the Ratio amounted to 18.79 and the IC50 is 50 to 100 nM. The IC50 in test [2] is above 500 nM.

For `C[C@H](Nc1nc(C(=O)NCCO)c2sc(N)cc2n1)c1ccccn1` [Example Z209, (S)-6-Amino-N-(2-hydroxyethyl)-2-((1-(pyridin-2-yl)ethyl)amino)thieno[3,2-d]pyrimidine-4-carboxamide], in test [1], the Ratio is reported as 30.22 and the IC50 lay within 10 to 50 nM. In addition, in test [2], the IC50 is above 500 nM.

As for `CCc1cc2nc(N[C@@H](C)c3cccnc3)nc(C(=O)N3CCCC3)c2s1` [Example Z214, (S)-(6-Ethyl-2-((1-(pyridin-3-yl)ethyl)amino)thieno[3,2-d]pyrimidin-4-yl)(pyrrolidin-1-yl)methanone], in test [1], the Ratio stood at 6.84 and the IC50 lay in the range of 100 to 500 nM. The IC50 in test [2] was above 500 nM.

As to `C[C@H](Nc1nc(C(=O)NCCS(C)(=O)=O)c2sccc2n1)c1ccccn1` [Example Z215, (S)—N-(2-(Methylsulfonyl)ethyl)-2-((1-(pyridin-2-yl)ethyl)amino)thieno[3,2-d]pyrimidine-4-carboxamide], the Ratio in test [1] stood at 2.95. Also, the IC50 in test [1] and in test [2] was 100 to 500 nM throughout.

On to `COCC(Nc1nc(C(=O)NC2COC2)c2sccc2n1)c1cccnc1` (centres unmarked) [Example Z216, 2-((2-Methoxy-1-(pyridin-3-yl)ethyl)amino)-N-(oxetan-3-yl)thieno[3,2-d]pyrimidine-4-carboxamide], for which, in test [1], the Ratio is listed as 5.35 and the IC50 is 10 to 50 nM. In test [2], the IC50 was in the range of 100 to 500 nM.

In the case of `COCC(Nc1nc(C(=O)N2CC(OC)C2)c2sccc2n1)c1cccnc1` (centres unmarked) [Example Z217, (2-((2-Methoxy-1-(pyridin-3-yl)ethyl)amino)thieno[3,2-d]pyrimidin-4-yl)(3-methoxyazetidin-1-yl)methanone], in test [1], the Ratio is listed as 5.70. Further, the IC50 in test [1] was 10 to 50 nM; in test [2], 50 to 100 nM.

Consider `COCC(Nc1nc(C(=O)N[C@H]2C[C@@H](O)C2)c2sccc2n1)c1cccnc1` (some centres unmarked) [Example Z218, N-((1s,3s)-3-Hydroxycyclobutyl)-2-((2-methoxy-1-(pyridin-3-yl)ethyl)amino)thieno[3,2-d]pyrimidine-4-carboxamide], for which the Ratio in test [1] was determined as 8.99. Also, the results for the IC50 in test [1] and in test [2] were 10 to 50 nM and 100 to 500 nM, respectively.

With `C[C@H](Nc1nc(C(=O)N2CC[C@@H](O)C2)c2sc(N)cc2n1)c1cccnc1` [Example Z220, (6-Amino-2-(((S)-1-(pyridin-3-yl)ethyl)amino)thieno[3,2-d]pyrimidin-4-yl)((R)-3-hydroxypyrrolidin-1-yl)methanone], in test [1], the Ratio is listed as 44.45. For the same compound, the IC50 is 100 to 500 nM in test [1] and above 500 nM in test [2].

As to `C[C@H](Nc1nc(C(=O)NCC2CCOCC2)c2sccc2n1)c1ccccn1` [Example Z227, (S)-2-((1-(Pyridin-2-yl)ethyl)amino)-N-((tetrahydro-2H-pyran-4-yl)methyl)thieno[3,2-d]pyrimidine-4-carboxamide], in test [1], the Ratio was 4.59 and the IC50 was in the range of 10 to 50 nM. Also, the IC50 in test [2] fell in the range of 100 to 500 nM.

For the compound `C[C@H](Nc1nc(C(=O)NC[C@H]2CCCN2C(=O)OC(C)(C)C)c2sccc2n1)c1ccccn1` [Example Z228, tert-Butyl (R)-2-((2-(((S)-1-(pyridin-2-yl)ethyl)amino)thieno[3,2-d]pyrimidine-4-carboxamido)methyl)pyrrolidine-1-carboxylate], in test [1], the Ratio is 2.80 and the IC50 was above 500 nM. Also, in test [2], the IC50 was above 500 nM.

Consider `C[C@H](Nc1nc(C(=O)NCC(C)(C)O)c2sccc2n1)c1ccccn1` [Example Z230, (S)—N-(2-Hydroxy-2-methylpropyl)-2-((1-(pyridin-2-yl)ethyl)amino)thieno[3,2-d]pyrimidine-4-carboxamide], for which, in test [1], the Ratio amounted to 7.45 and the IC50 was 100 to 500 nM. Also, the IC50 in test [2] was above 500 nM.

With `CN(C(=O)OC(C)(C)C)C1CN(C(=O)c2nc(NCc3cncc(F)c3)nc3ccsc23)C1` [Example Z235, tert-Butyl (1-(2-(((5-fluoropyridin-3-yl)methyl)amino)thieno[3,2-d]pyrimidine-4-carbonyl)azetidin-3-yl)(methyl)carbamate], in test [1], the Ratio was 2.57 and the 50% inhibitory concentration (IC50) was 50 to 100 nM. Further, the IC50 in test [2] was 100 to 500 nM.

With `CC(C)(C)OC(=O)N[C@H]1CCN(C(=O)c2nc(NCc3cncc(F)c3)nc3ccsc23)C1` [Example Z245, tert-Butyl (S)-(1-(2-(((5-fluoropyridin-3-yl)methyl)amino)thieno[3,2-d]pyrimidine-4-carbonyl)pyrrolidin-3-yl)carbamate], in test [1], the Ratio is 1.87 and the IC50 lay in the range of 50 to 100 nM. In test [2], the IC50 is 100 to 500 nM.

`C[C@H](Nc1nc(C(=O)N2CC[C@@H](NC(=O)OC(C)(C)C)C2)c2sccc2n1)c1ccccn1` [Example Z246, tert-Butyl ((R)-1-(2-(((S)-1-(pyridin-2-yl)ethyl)amino)thieno[3,2-d]pyrimidine-4-carbonyl)pyrrolidin-3-yl)carbamate]: the IC50 in test [1] fell in the range of 10 to 50 nM; in test [2] it was 100 to 500 nM.

For `C[C@H](Nc1nc(C(=O)N2CC(O)C2)c2sc(N)cc2n1)c1cccnc1` [Example Z248, (S)-(6-Amino-2-((1-(pyridin-3-yl)ethyl)amino)thieno[3,2-d]pyrimidin-4-yl)(3-hydroxyazetidin-1-yl)methanone], in test [1], the Ratio is on record as 15.23 and the half-maximal inhibitory concentration (IC50) is 50 to 100 nM. In addition, the IC50 in test [2] is above 500 nM.

Turning to `O=C(c1nc(NCc2cncc(C(F)(F)F)c2)nc2ccsc12)N1CCC1` [Example Z257, Azetidin-1-yl(2-(((5-(trifluoromethyl)pyridin-3-yl)methyl)amino)thieno[3,2-d]pyrimidin-4-yl)methanone], in test [1], the Ratio worked out at 9.16 and the IC50 fell in the range of 50 to 100 nM. Besides, the IC50 in test [2] was above 500 nM.

With `O=C(c1nc(NCCc2ccccc2)nc2ccsc12)N1CCCC1` [Example Z258, (2-(Phenethylamino)thieno[3,2-d]pyrimidin-4-yl)(pyrrolidin-1-yl)methanone], in test [1], the Ratio worked out at 1.70 and the IC50 lay within 100 to 500 nM. Moreover, in test [2], the IC50 lay in the range of 100 to 500 nM.

On to `CS(=O)(=O)[C@@H]1CCN(C(=O)c2nc(NCc3cncc(F)c3)nc3ccsc23)C1` [Example Z261, (R)-(2-(((5-Fluoropyridin-3-yl)methyl)amino)thieno[3,2-d]pyrimidin-4-yl)(3-(methylsulfonyl)pyrrolidin-1-yl)methanone], for which, in test [1], the Ratio came out at 10.23 and the IC50 was in the range of 100 to 500 nM. In addition, the IC50 in test [2] is above 500 nM.

On to `C[C@H](Nc1nc(C(=O)N2CC[C@@H](S(C)(=O)=O)C2)c2sccc2n1)c1cccnc1` [Example Z262, ((R)-3-(Methylsulfonyl)pyrrolidin-1-yl)(2-(((S)-1-(pyridin-3-yl)ethyl)amino)thieno[3,2-d]pyrimidin-4-yl)methanone], for which the Ratio in test [1] came to 1.12. The IC50 in test [1] and in test [2] was above 500 nM in each case.

The values are drawn from patent US11254686B1 (Corvus Pharmaceuticals, Inc., priority 2017, dated 2022).
